Data taken from the supplement of paper PMC10307832.

How the values were obtained:
Assay in all cases: relative viability (nuclei count vs DMSO), 5 days (fraction); higher = more cells survive
Seliciclib + Palbociclib = compound: CC[C@H](CO)Nc1nc(NCc2ccccc2)c2ncn(C(C)C)c2n1 [Seliciclib] + CC(=O)c1c(C)c2cnc(Nc3ccc(N4CCNCC4)cn3)nc2n(C2CCCC2)c1=O [Palbociclib] (partner 0.5 µM)
In short: (§1)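 For relative viability, nuclei counts in treated wells were divided by those in vehicle wells. Lung cancer cell lines had been pin-tool dosed in 1536-well plates the day after seeding and cultured for 5 days, then fixed and stained in one step (final 0.05% Triton X-100, 1% formaldehyde, 1 ug/ml Hoechst) and imaged at 4×. Doses were one drug alone or a fixed anchor-drug dose plus five library-drug doses (not always all listed) in √10 steps, and values are duplicate-plate medians.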

Seliciclib + Foretinib = compound: CC[C@H](CO)Nc1nc(NCc2ccccc2)c2ncn(C(C)C)c2n1 [Seliciclib] + COc1cc2c(Oc3ccc(NC(=O)C4(C(=O)Nc5ccc(F)cc5)CC4)cc3F)ccnc2cc1OCCCN1CCOCC1 [Foretinib] (partner 0.25 µM)
In short: as §1

Seliciclib + Bortezomib = compound: CC[C@H](CO)Nc1nc(NCc2ccccc2)c2ncn(C(C)C)c2n1 [Seliciclib] + CC(C)C[C@H](NC(=O)[C@H](Cc1ccccc1)NC(=O)c1cnccn1)B(O)O [Bortezomib] (partner 0.002 µM)
In short: as §1

Seliciclib + Pictilisib = compound: CC[C@H](CO)Nc1nc(NCc2ccccc2)c2ncn(C(C)C)c2n1 [Seliciclib] + CS(=O)(=O)N1CCN(Cc2cc3nc(-c4cccc5[nH]ncc45)nc(N4CCOCC4)c3s2)CC1 [Pictilisib] (partner 1 µM)
In short: as §1

Row | Cell Line | relative viability (Seliciclib + Palbociclib; first compound 0.08 µM) | relative viability (Seliciclib + Palbociclib; first compound 0.253 µM) | relative viability (Seliciclib + Palbociclib; first compound 0.8 µM) | relative viability (Seliciclib + Palbociclib; first compound 2.53 µM) | relative viability (Seliciclib + Palbociclib; first compound 8 µM) | relative viability (Seliciclib + Foretinib; first compound 0.08 µM) | relative viability (Seliciclib + Foretinib; first compound 0.253 µM) | relative viability (Seliciclib + Foretinib; first compound 0.8 µM) | relative viability (Seliciclib + Foretinib; first compound 2.53 µM) | relative viability (Seliciclib + Foretinib; first compound 8 µM) | relative viability (Seliciclib + Bortezomib; first compound 0.08 µM) | relative viability (Seliciclib + Bortezomib; first compound 0.253 µM) | relative viability (Seliciclib + Bortezomib; first compound 0.8 µM) | relative viability (Seliciclib + Bortezomib; first compound 2.53 µM) | relative viability (Seliciclib + Bortezomib; first compound 8 µM) | relative viability (Seliciclib + Pictilisib; first compound 0.08 µM) | relative viability (Seliciclib + Pictilisib; first compound 0.253 µM) | relative viability (Seliciclib + Pictilisib; first compound 0.8 µM) | relative viability (Seliciclib + Pictilisib; first compound 2.53 µM) | relative viability (Seliciclib + Pictilisib; first compound 8 µM)
1 | HCC-366 | 0.35 | 0.272 | 0.345 | 0.328 | 0.166 | 0.917 | 0.97 | 0.786 | 0.93 | 0.762 | 0.987 | 1.06 | 1.01 | 1.08 | 0.908 | 0.12 | 0.137 | 0.106 | 0.109 | 0.163
2 | HCC-827 | 0.486 | 0.493 | 0.456 | 0.39 | 0.231 | 1.01 | 1.04 | 0.968 | 0.972 | 0.925 | 1.08 | 1.03 | 1.05 | 1.04 | 0.881 | 0.953 | 0.963 | 0.811 | 1.03 | 0.925
3 | HOP-62 | 0.463 | 0.398 | 0.397 | 0.366 | 0.308 | 1.17 | 1.18 | 1.1 | 1.17 | 0.993 | 0.837 | 0.754 | 0.684 | 0.868 | 0.331 | 0.778 | 0.61 | 0.563 | 0.588 | 0.62
4 | IA-LM |  |  |  |  |  | 1.18 | 1.48 | 1.04 | 1.1 | 0.925 | 0.78 | 0.94 | 0.708 | 0.817 | 0.729 | 0.338 | 0.412 | 0.344 | 0.346 | 0.232
5 | LC-2-ad | 0.49 | 0.524 | 0.494 | 0.466 | 0.371 | 0.949 | 0.966 | 0.865 | 0.747 | 0.852 | 1.02 | 0.514 | 0.986 | 0.958 | 0.816 | 0.487 | 0.572 | 0.34 | 0.205 | 0.0269
6 | LCLC-97TM1 | 0.219 | 0.242 | 0.186 | 0.184 | 0.108 | 0.936 | 0.952 | 0.961 | 0.793 | 0.72 | 0.816 | 0.767 | 0.646 | 0.163 | 0.195 | 0.281 | 0.168 | 0.17 |  | 0.142
7 | LCLC-103H | 0.524 | 0.51 | 0.486 | 0.469 | 0.423 | 0.812 | 0.878 | 0.708 | 0.739 | 0.589 | 0.94 | 1.03 | 0.92 | 0.939 | 1.01 | 0.819 | 0.673 | 0.627 | 0.434 | 0.576
8 | LK-2 | 0.466 | 0.423 | 0.509 | 0.447 | 0.285 | 1.13 | 1.08 | 0.776 | 0.85 | 0.977 |  |  |  |  |  | 0.591 | 0.562 | 0.614 | 0.541 | 0.447
9 | NCI-H358 | 0.13 | 0.167 | 0.133 | 0.105 | 0.107 | 0.684 | 0.597 | 0.752 | 0.665 | 0.457 |  |  |  |  |  | 0.346 | 0.408 | 0.289 | 0.312 | 0.216
10 | NCI-H522 | 0.913 | 1.01 | 0.972 | 0.909 | 0.87 |  |  |  |  |  |  |  |  |  |  |  |  |  |  | 
11 | NCI-H596 |  |  |  |  |  | 0.849 |  | 0.843 | 0.68 | 0.65 | 1.1 | 0.892 | 0.96 | 1.19 | 0.914 | 0.376 | 0.36 | 0.403 | 0.421 | 0.415
12 | NCI-H1395 | 0.596 | 0.49 | 0.604 |  | 0.523 | 0.974 | 0.905 | 0.978 | 0.995 | 0.966 |  |  |  |  |  | 0.6 | 0.757 | 0.641 | 0.535 | 0.649
13 | NCI-H1563 |  |  |  |  |  | 0.922 | 0.803 | 0.932 | 0.941 | 0.86 | 0.856 | 0.79 | 0.892 | 0.806 | 0.861 | 0.649 | 0.621 | 0.681 | 0.567 | 0.691
14 | NCI-H1703 |  |  |  |  |  | 0.352 | 0.362 | 0.323 | 0.298 | 0.342 | 0.416 | 0.297 | 0.371 | 0.353 | 0.249 | 0.252 | 0.234 | 0.26 | 0.225 | 0.241
15 | NCI-H1792 | 0.655 | 0.717 | 0.613 |  | 0.566 |  |  |  |  |  | 1.03 | 0.96 | 0.898 | 0.904 | 0.884 | 0.233 | 0.313 | 0.273 | 0.285 | 0.274
16 | NCI-H1793 | 0.28 | 0.258 | 0.289 | 0.289 | 0.224 | 0.706 | 0.6 | 0.654 | 0.712 | 0.456 |  |  |  |  |  | 0.282 | 0.339 | 0.317 | 0.32 | 0.294
17 | NCI-H1944 | 0.354 | 0.312 | 0.28 | 0.261 | 0.268 | 0.881 | 0.866 | 0.829 | 0.9 | 0.554 |  |  |  |  |  | 0.375 | 0.35 | 0.333 | 0.283 | 0.303
18 | NCI-H2170 | 0.389 |  | 0.372 | 0.364 | 0.308 | 0.936 | 0.934 | 1.01 | 1.09 | 0.968 |  |  |  |  |  | 0.306 | 0.255 | 0.286 | 0.243 | 0.336
19 | SK-MES-1 | 0.329 | 0.336 | 0.314 | 0.259 | 0.277 | 0.891 | 0.889 | 0.771 | 0.903 | 0.862 |  |  |  |  |  | 0.317 | 0.349 | 0.353 | 0.335 | 0.31
20 | SW 900 | 0.583 | 0.489 | 0.513 | 0.411 | 0.306 | 0.802 | 0.995 | 0.784 | 0.765 | 0.891 |  |  |  |  |  |  |  |  |  | 
